Where a name gives a salt, the structure may show the parent alone. Read-outs that look alike come from different tables or passages of the source.
Assays:
[1] = Pharmacokinetic study in rats (plasma and red blood cell); format: in vivo; settings: male, Sprague-Dawley, rat, oral, 7.2 mg/kg
Protocol: Rats (Sprague-Dawley, male, 220-280 g) were dosed with GBT-440 (HCl salt) and one of three compounds corresponding to Example 27, 29, and 38. The rats received oral (7.2 mpk) doses of the compound. Rats were fasted overnight before the experiments and provided with food four hours after dosing. The oral dosing formulations was prepared as follows: approximately 10 mg of compound was weighed precisely to an appropriate size of container, to which was added 2 mL of vehicle 0.5% methylcellulose in water and 8 μL 0.5% sodium dodecyl sulfate. The mixture was then transferred into a glass vial, and volume adjusted to appropriate volume with 0.5% methylcellulose to obtain a final concentration of 0.72 mg·mL^−1, and then vortexed and sonicated briefly.
Whole blood sample collection: Blood samples ([…]) were collected at pre-dose, 15, 30 min, 1, 2, 4, 8, 12 and 24 h via jugular vein into tubes and anticoagulated with 3.2% TSC (trisodium citrate). The proportion of anticoagulant and blood was 1:9 (v/v). The sampling time was recorded accordingly. The tubes were gently inverted several times to ensure mixing. Then 10 μL doses of whole blood sample was transferred to a new EP tube and duplicated in wet ice.
Plasma sample collection: The remaining whole blood was processed by centrifugation at 5,500 rpm for 10 min. The supernate was collected. All these whole blood and plasma samples were kept below −20° C. for 1 h prior to analysis.
(§1) Plasma sample preparation: An aliquot of 20 μL of sample was transferred to sample treatment tube (1.5 mL EP tube), and then 100 μL ACN (0.5% FA) containing Verapamil, 5 ng·mL^−1 and Glibenclamide, 50 ng·mL^−1 for protein precipitation was added. The mixture was vortexed for 30 min, and then centrifuged at 13000 rpm for 5 min at room temperature. After that, 70 μL of supernatant was transferred to a 96-Well Plate, to which 70 μL of water added and then vortexed for 10 min at room temperature. An aliquot of 10 μL of this mixture was analyzied using LC-MS/MS.
as §1, with “Whole blood” for “Plasma”, “10” for “20”, “500” for “100”, “water was” for “water”, “analyzed” for “analyzied”
Plasma and red blood cell concentration-time data were processed by linear regression analysis. All pharmacokinetic parameters were calculated using non-compartment model of Pharsight Phoenix 6.3.
Red blood cell concentrations were calculated according to the method below: Mass balance equation: Cb·VB=Cp·Vp+CBC·VBC Where, Cb=Concentration of whole blood; VB=Volume of whole blood; Cp=Concentration of plasma; Vp=Volume of plasma; CBC=Concentration of blood cell; VBC=Volume of blood cell. VBC=H·VB, where H is the hematocrit number. Vp=(1−H)·VB

[2] = Solubility in JP1, JP2 and FaSSIF buffers; format: physicochemical; settings: 25 °C, thermodynamic from solid, room temperature
Protocol: Conditions: 1. JP1 buffer (84 mM HCl, 34.22 mM NaCl, pH 1.2); 2. JP2 buffer (50 mM phosphate buffer at pH 6.8); 3. FaSSIF buffer, pH 6.5 (Preparation: In about 0.9 L of purified water dissolve 0.420 g of NaOH (pellets), 4.470 g of NaH2PO4 (dihydrate), 6.186 g of NaCl; Adjust the pH to 6.5 with Sodium hydroxide 1N or Hydrochloric acid 1N, to make up to volume (1 L) with purified water at room temperature; Add 0.224 g of SIF Powder Original to about 0.5 L of pH 6.5 blank buffer and stir until powder is completely dissolved; Let stand for 2 hour. FaSSIF buffer is now ready to use.
Procedures: 1. accurately weighed about 2 mg test compounds and controls in whatman vials, then transferred 450 μL buffer in to the vials; 2. Filter pistons of miniuniprep vials were placed and compressed to the position of the liquid level to allow for contact. Vortexed for 2 minutes; 3. […] Miniunipreps were compressed to prepare the filtrates for injection into HPLC system; 5. Diluted the filtrates with buffer by a factor of 50 fold to make diluents; 6. Determined the test compound concentration of the diluents and filtrates using HPLC-UV.

[3] = molecular target: T1, hemoglobin (normal human adult blood) (Homo sapiens, UniProt P68871+P69905); experiment: Time-dependent oxygen equilibrium curve (OEC) studies in normal whole blood; format: cell-based; settings: 2 mM compound, 2% DMSO, normal human blood 20% hematocrit, 37° C., 1 h
T1 construct: Normal whole blood was collected from adult healthy donors; from tissue; host or cells: normal human whole blood (red blood cells), adult healthy donors
T1 sequence (P69905 2-142 limits assumed): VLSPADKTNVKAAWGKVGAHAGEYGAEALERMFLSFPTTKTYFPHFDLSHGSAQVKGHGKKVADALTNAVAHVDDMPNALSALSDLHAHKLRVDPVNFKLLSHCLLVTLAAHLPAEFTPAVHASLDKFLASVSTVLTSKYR
T1 sequence (P68871 2-147 limits assumed): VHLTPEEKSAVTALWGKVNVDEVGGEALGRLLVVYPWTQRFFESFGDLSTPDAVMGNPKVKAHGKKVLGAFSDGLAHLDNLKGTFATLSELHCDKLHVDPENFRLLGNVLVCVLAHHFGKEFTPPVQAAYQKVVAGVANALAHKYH
Protocol: Materials: Normal whole blood was collected from adult healthy donors at the Virginia Commonwealth University after informed consent. The use of these human samples is in accordance with regulations of the IRB for Protection of Human Subjects. Compounds (50 mM-100 mM concentration in DMSO) were stored at 15° C. or room temperature until use.
The time-dependent OEC studies were conducted on normal human adult blood samples with hematocrit value of 20% in the absence or presence of effectors solubilized in DMSO at final drug and DMSO concentrations of 2 mM and 2%, respectively. […] The mixture was further incubated at 37° C. with shaking. […] After equilibration, the sample was removed by syringe and aspirated into a ABL 700 series table top automated blood gas analyzer (Radiometer America, Inc., Westlake, Ohio) to determine values of total hemoglobin (tHb), methemoglobin (metHb), hematocrit (Hct), pH, partial pressure of oxygen (pO2), and Hb oxygen saturation values (sO2). The measured values of sO2 and pO2 at each partial pressure of oxygen are then subjected to a non-linear regression analysis using the program Scientist (Micromath, Salt Lake City, Utah) with the following equation: […]
This equation was used to calculate P50 and Hill coefficient (N) values. Corresponding control experiments without the test compound (P50control) but containing DMSO were also performed. GBT440 was used as a positive control.

[4] = red blood cells, red blood cell (calculated by mass balance from whole blood and plasma), read-out: AUC0-24 h RBC
[5] = red blood cells, red blood cell (calculated by mass balance from whole blood and plasma), read-out: Cmax RBC
[6] = red blood cells, red blood cell, read-out: T1/2 RBC (converted)
[7] = plasma, read-out: AUC0-24 h Plasma
[8] = plasma, read-out: T1/2 Plasma (converted)
[9] = aqueous buffer, JP2 buffer (50 mM phosphate) pH 6.8, 24 hr, read-out: JP2 Solubility
[10] = simulated gastric fluid, JP1 buffer pH 1.2, 24 hr, read-out: JP1 Solubility
[11] = FaSSIF buffer pH 6.5, 24 hr, read-out: FaSSIF Solubility

| AUC(0-t) [1, 4] [µg·h/mL] | Cmax [1, 5] [µg/mL] | half-life [1, 6] [h] | AUC(0-t) [1, 7] [µg·h/mL] | Cmax ([1]; plasma, read-out: Cmax Plasma) [µg/mL] | half-life [1, 8] [h] | solubility at 24 h [2, 9] [µg/mL] | solubility at 24 h [2, 10] [µg/mL] | solubility at 24 h [2, 11] [µg/mL] | delta p50 [3] [%] | SMILES |
| --- | --- | --- | --- | --- | --- | --- | --- | --- | --- | --- |
| 566 | 50.3 | 26 | 10.7 | 0.742 | 18 | 8.16 | 623 | 35.7 | – | Cl.[2H]C([2H])(Oc1cc(F)cc(O)c1C=O)c1cccnc1-c1ccnn1C(C)C [Example 27, 4-fluoro-2-hydroxy-6-((2-(1-isopropyl-1H-pyrazol-5-yl)pyridin-3-yl)methoxy-d2)benzaldehyde hydrochloric acid] |
| 12000 | 1240 | 10 | 42.6 | 4.01 | 12 | 74.4 | > 4440 | 591 | – | Cl.[2H]C([2H])(Oc1cccc(O)c1C=O)c1cccnc1-n1ccnc1C(C)C [Example 29, 2-hydroxy-6-((2-(2-isopropyl-1H-imidazol-1-yl)pyridin-3-yl)methoxy-d2)benzaldehyde hydrochloric acid] |
| – | – | – | – | – | – | – | – | – | −69 | CC(C)n1nccc1-c1cn(C)c(=O)cc1COc1cccc(O)c1C=O [Example 60, 2-hydroxy-6-((5-(1-isopropyl-1H-pyrazol-5-yl)-1-methyl-2-oxo-1,2-dihydropyridin-4-yl)methoxy)benzaldehyde] |
| – | – | – | – | – | – | – | – | – | −59 | CC(C)n1nccc1-c1nccc2c1C(Oc1cccc(O)c1C=O)CO2 (stereo not shown) [Example 61g, 2-hydroxy-6-((4-(1-isopropyl-1H-pyrazol-5-yl)-2,3-dihydrofuro[3,2-c]pyridin-3-yl)oxy)benzaldehyde] |
| – | – | – | – | – | – | – | – | – | −63 | CC(C)n1nccc1-c1nccc2c1[C@@H](Oc1cccc(O)c1C=O)CO2 [Example 62a, (R)-2-hydroxy-6-((4-(1-isopropyl-1H-pyrazol-5-yl)-2,3-dihydrofuro[3,2-c]pyridin-3-yl)oxy)benzaldehyde] |
| – | – | – | – | – | – | – | – | – | −64 | CC(C)n1nccc1-c1nccc2c1[C@H](Oc1cccc(O)c1C=O)CO2 [Example 62b, (S)-2-hydroxy-6-((4-(1-isopropyl-1H-pyrazol-5-yl)-2,3-dihydrofuro[3,2-c]pyridin-3-yl)oxy)benzaldehyde] |
| 3440 | 216 | 17 | 22.8 | 2.15 | 19 | 28 | 986 | 95.7 | – | CC(C)n1nccc1-c1ncccc1COc1cccc(O)c1C=O [GBT-440 (HCl salt), reference compound] |

From patent US10787430B2, “Hemoglobin modifier compounds and uses thereof” (FronThera U.S. Pharmaceuticals LLC, priority 2016, dated 2020)
